The source of these data is patent US20060257935A1, “Hematopoietic factor production promoter” (Ajinomoto Co., Inc., priority 2005, published 2006).

Series [1] concerns activin (rat Inhibin betaA). The series can be described thus: Activin mRNA quantification by quantitative PCR in bone marrow cells isolated from renal failure rat. The following applies: 2 hours after addition of arginine, 400 μM or 600 μM vs 100 μM. It counts as cell-based. An excerpt: (§1) A renal failure rat (a rat from which ⅚ of kidney was removed) was produced as follows. A male Wistar rat at 8 weeks of age (Charles River Japan, Inc.) was subjected to the total extirpation of the right kidney and the ⅔ extirpation of the renal cortex of the left kidney under anesthesia with Nembutal and was sutured. After the surgery, the rat was housed under normal housing condition (CRF-1 diet, Charles River Japan, Inc.). Six weeks after the surgery the renal failure rat was killed by diethyl ether, then both femurs were excised and bone marrow cells were isolated. The isolated bone marrow cells were suspended in an IMDM medium with blood amino acid concentration containing 10% FCS. […]
(§2) The quantification of mRNA of each of the hematopoietic factors was determined by the quantitative PCR method mentioned below. Based on the sequences of activin (rat Inhibin betaA), SCF and IGF-1 registered in NCBI (GenBank accession Nos. M37482, NM021843, and NM178886, respectively in the order), oligonucleotide primers to be used for the quantitative PCR method were synthesized. […]
(§3) The quantitative PCR method was in accordance with the method described in SYBRGreen PCR kit (TOYOBO., Ltd.). […] After the quantitative PCR, the presence or absence and size of an amplified product were confirmed by agarose gel electrophoresis. […]

Series [2] deals with SCF. In words: SCF mRNA quantification by quantitative PCR in bone marrow cells isolated from renal failure rat. Format: cell-based. The following applies: 2 hours after addition of arginine, 400 μM or 600 μM vs 100 μM.
Source text: as §1, §2, §3

Series [3] has as its system IGF-1. The series can be described thus: IGF-1 mRNA quantification by quantitative PCR in bone marrow cells isolated from renal failure rat. Format: cell-based. The following applies: 2 hours after addition of arginine, 400 μM or 600 μM vs 100 μM.
Source text: as §1, §2, §3

In series [4] the test system is mouse bone marrow cells (CFU-E). In words: In vitro mouse CFU-E colony assay (methylcellulose semi-solid medium). It counts as cell-based. As for the experimental part:
An in vitro mouse CFU-E colony assay was conducted in accordance with the following method. After a female BDF-1 mouse at 10 weeks of age (Charles River Japan, Inc.) was killed by the cervical dislocation method, bone marrow cells were isolated from the femur and suspended in an IMDM medium (Invitrogen) containing 10% FCS (JRH Bioscience Inc). The bone marrow cells were centrifuged at 1500 rpm for 10 minutes at 4° C. and the precipitated bone marrow cells were resuspended in an amino acid-free IMDM medium and the number of cells was measured. […] At 28 hours after the culture was carried out under the condition of 37° C. and 5% CO2, the number of CFU-E colonies was measured using an inverted microscope. […] The data is expressed as a mean value±SEM. […]

Series [5] can be described thus: Blood arginine concentration after oral administration to rats. Format: in vivo, rat. The following applies: oral single-dose administration of arginine at 1.2 g/kg.
For series [6], the system named is normal rats. The following applies: repeated administration; cited from earlier work.
In series [7] the test system is patients with renal anemia. The following applies: cited from earlier work.
Series [8] deals with porcine primary hepatocyte. The following applies: added to medium for porcine primary hepatocyte culture at a high concentration; cited from earlier work.
Series [9] deals with MC3T3-E1 cells. The following applies: cited from earlier work.

With `N=C(N)NCCC[C@H](N)C(=O)O` [arginine], the “production of activin (relative mRNA level per total RNA)” value in series [1] is recorded as “promotes the production”. The “production of SCF (relative mRNA level per total RNA)” value in [2] is on record as “promotes the production”. Also, the “production of IGF-1 (relative mRNA level per total RNA)” value in series [3] is reported as “promotes the production”. Moreover, the “number of CFU-E colonies” value in series [4] (600 μM arginine added to isolated mouse bone marrow cells, compared with 170 μM) is “significantly increases”. Besides, the blood arginine concentration entry in series [5] is “about 600 μM”. In addition, the “amount of hemoglobin and red blood cells” value in [6] was “increased”. Moreover, the “condition of anemia (number of red blood cells)” value in series [7] is recorded as “improved”. The “gene expression of IGF-1” value in series [8] is reported as “increases”; in series [9] (MC3T3-E1 cells, arginine added at a higher concentration), “increases”. For the same molecule, in series [9] (MC3T3-E1 osteoblast-like cell line), the “secretion amount of IGF-1” value is given as “increases”.

On to `O=C(O)[C@@H]1CCCN1` [proline], for which, in [8], the “gene expression of IGF-1” value is “increases”.

For `C[C@@H](O)[C@H](N)C(=O)O` [threonine], the “gene expression of IGF-1” value in [8] was “increases”.

As for `N[C@@H](Cc1c[nH]c2ccccc12)C(=O)O` [triptophan], the “gene expression of IGF-1” value in series [8] is recorded as “increases”.

B1: follistatin: follistatin (FSN, anti-activin, R&D Co.), inhibitor for activin (protein, UniProt P19883 30-344, looked up)
Follistatin: GNCWLRQAKNGRCQVLYKTELSKEECCSTGRLSTSWTEEDVNDNTLFKWMIFNGGAPNCIPCKETCENVDCGPGKKCRMNKKNKPRCVCAPDCSNITWKGPVCGLDGKTYRNECALLKARCKEQPELEVQYQGRCKKTCRDVFCPGSSTCVVDQTNNAYCVTCNRICPEPASSEQYLCGNDGVTYSSACHLRKATCLLGRSIGLAYEGKCIKAKSCEDIQCTGGKKCLWDFKVGRGRCSLCDELCPDSKSDEPVCASDNATYASECAMKEAACSSGVLLEVKHSGSCNSISEDTEEEEEDEDQDYSFPISSILEW
For the molecule B1, the “inhibition of CFU-E-colony stimulating activity of arginine” value in series [4] (follistatin 100 ng/ml, 600 μM arginine, 28 hours culture) is listed as “inhibited”.
